Data taken from a melting point compilation (Tetko et al.; mined from patent text by program, amines drawn as free bases though some values may be those of a salt).

Row | melting point | Structure (SMILES)
1 | 87 to 88 °C | COC1=C(OC)C(=O)C(CCCCCCc2ccc(O)cc2)=C(C)C1=O
2 | 154 to 155 °C | CCOC(=O)Cn1cc(I)c(NC(=O)c2ccccc2)nc1=O
3 | 136 to 137 °C | CCNc1nc(-c2ccccc2)ncc1[N+](=O)[O-]
4 | 170 to 178 °C | O=c1[nH]c2ccc(C3=NOC(CN4CCC(S(=O)c5ccc(F)cc5)CC4)C3)cc2o1 (centres undefined)
5 | 88 to 90 °C | CC(=O)Oc1c(C)c(C)c2c(c1C)CCC(C)(C=O)O2 (centres undefined)
6 | 94 to 96 °C | CCCCCC(=O)c1cnc2c(OC)cccc2c1Nc1ccccc1C
7 | 169 to 173 °C | NC(=O)c1cc(C(=O)CN(Cc2ccccc2)Cc2ccccc2)ccc1OCC(O)CO (centres undefined)
8 | 136 to 137 °C | COCC(C)Oc1cc(Oc2ccc(S(C)(=O)=O)cc2)cc2cc(C(=O)O)[nH]c12 (centres undefined)
9 | 72.5 to 74.9 °C | COc1ccc(-c2cc(=O)n(CC=Cc3ccc(Cl)cc3)nc2-c2ccc(OC)c(F)c2)cc1F
10 | 125 to 126 °C | CC(C)(CSc1ccc(Cl)cc1)C(Cn1ccnc1)=NO
11 | 130 to 131 °C | COc1ccc(S(=O)(=O)NCC2CCN(C[C@H]3COc4ccc(Cl)cc4O3)CC2)cc1
12 | 180 to 198 °C | Clc1ccc2ncsc2c1Cl
13 | 180 °C | O=C(O)C1=Cc2ccc(C(F)(F)F)cc2Oc2ccccc21
14 | 246 °C | CCOC(=O)c1cn2c3c(c(-c4ccccc4)ccc3c1=O)OCC2C (centres undefined)
15 | 104 to 109 °C | O=C(O)CC1CCc2c(cccc2OC2CCCCO2)C1 (centres undefined)
16 | 84 to 86 °C | O=C(OCOC(=O)C1CCc2c(c3ccccc3n2C(=O)c2ccccc2)C1)c1ccccc1 (centres undefined)
17 | 196 to 197 °C | O=C1C(=Cc2ccccc2O)c2ccccc2N1C1=NCCS1
18 | 167 to 169 °C | S=C(Nc1ccccc1Cl)N1CCN(c2cnccn2)CC1
19 | 123 to 126 °C | CC(C)(C)c1ccc(CCC(=O)N2C(=O)OC[C@@H]2Cc2ccccc2)cc1
20 | 144 to 147 °C | CC(C)n1nc(-c2sc(C(=O)NCCc3ccccn3)nc2-c2ccccc2)ccc1=O
21 | > 220 °C | c1coc(-c2ccnc3[nH]c4ccccc4c23)c1
22 | 177 to 180 °C | CCOC(=O)C(=O)CC(=O)c1ccc2c(c1)c(=O)c(CCC(=O)O)cn2Cc1ccc(F)cc1
23 | 92 to 94 °C | CCCCC(=O)c1ccc(OCCCC(=O)O)c(Cl)c1Cl
24 | 136 to 138 °C | CC(C)(C)OC(=O)NCC1(O)CCNCC1

Row | melting point | Structure (SMILES)
25 | 164 °C | CCCCCCCCCCCCCCCCCc1cc(=O)[nH]c(NC(=N)Nc2ccccc2)n1
26 | 110 to 111 °C | Cc1cc2c(c(C)c1S(=O)(=O)C[N+](=O)[O-])CCC(C)(C)O2
27 | 130 to 131 °C | O=C(Cc1ccccc1)N[C@H]1CN(OCc2ccccc2)C1=O
28 | 203 to 205 °C | Cc1cc2c([nH]1)CC(c1ccccc1)CC2=O (centres undefined)
29 | 218 °C | COc1ccc(C2CC(c3ccc(F)cc3)=NN2c2ccc(C(=O)O)cc2)cc1 (centres undefined)
30 | 101 to 102 °C | O[C@@H](CNCCOc1ccc2sc(-c3ncon3)cc2c1)COc1ccccc1
31 | 85 to 87 °C | CCOC(=O)C(C)(C)N1COC(C)=C(I)C1=O
32 | 147 to 149 °C | CC1(C)CNc2cc3[nH]c(-c4ccncc4)nc3cc21
33 | 168 to 170 °C | CCn1nc(C)c2c1C1=NCCN1C(C)=N2
34 | 80 to 82 °C | COc1ccc2c(c1)CC[C@@H](Br)[C@@H]2O (relative stereo)
35 | 149 to 150 °C | COC(=S)NC(=O)c1ccccc1-c1ccc(C)cc1
36 | 62 to 63 °C | COC(=O)c1ccc(OC)c(O)c1
37 | 215 to 219 °C | Cn1ncnc1COc1nn2c(-c3ccccc3F)nncc2c1Br
38 | 117 to 118 °C | NCC(O)c1cc(Cl)cc(Cl)n1 (centres undefined)
39 | 108 to 110 °C | N#CCc1cccc(OCc2csc(-c3ccccc3)n2)c1
40 | 206 to 208 °C | CC1=C(Cc2ccc(C(=O)O)cc2)C(=O)C2C=CC=CC2C1=O (centres undefined)
41 | 110 to 112 °C | O=C(Nc1cccc(-c2ccc(C(=O)O)cc2)c1)OCC1c2ccccc2-c2ccccc21
42 | 226 to 228 °C | CCOC(=O)c1cnc(Nc2cccc([N+](=O)[O-])c2)[nH]c1=O
43 | 151 to 152 °C | O=C(O)COc1ccc(SCc2ccc(OCc3ccc(Cl)c(C(F)(F)F)c3)cc2)c2c1CCC2
44 | 218 to 220 °C | CN1CC[C@@H](c2c(O)cc(O)c3c(=O)cc(-c4cccs4)oc23)[C@@H]1CO
45 | 100 to 102 °C | O=C(CCN1CCC(C(O)c2ccc3ccccc3c2)CC1)Cc1ccc(F)cc1 (centres undefined)
46 | 243 to 245 °C | O=C1NC(=O)C(c2ccc(N3C(=O)c4ccccc4C3=O)cc2)S1 (centres undefined)
47 | 155 °C | CON1C=C2N=NC3=C(N2C1)N(c1cccc(Cl)c1)CC(C1CC1)=C3
48 | 123 to 124 °C | CCN(CC)CCOc1ccc(Nc2ncc3c(n2)N(C)C(=O)N(c2c(Cl)cccc2Cl)C3)cc1

Row | melting point | Structure (SMILES)
49 | 275 to 324 °C | CCOC(=O)c1ccc2c(=O)n3cc(C(=O)O)ccc3nc2c1
50 | 122 to 124 °C | CN1C(=O)CCC2(C)c3ccc(Sc4ccc(Cl)cc4)cc3CCC12 (single isomer, unassigned; (+))
51 | 238 °C | Cc1cc(C#N)cc(C(=O)Nc2ccnc(Cl)c2)n1
52 | 166 to 167 °C | CC(C#N)(NC(=O)c1c(Cl)cccc1Cl)c1ncc(C(F)(F)F)cc1Cl (centres undefined)
53 | 138 to 141 °C | NC(=O)CCCSc1cccc(NC(N)=NCC(F)(F)F)n1
54 | 73 to 74 °C | Cc1c(OCC(F)(F)F)ccnc1CS(=O)c1nc2cc(N3CCN(C)CC3)c(F)cc2[nH]1 (centres undefined)
55 | 188 to 190 °C | N#Cc1ccccc1-n1nc(C2CCN(C#N)CC2)c2ccccc21
56 | 61 to 64 °C | Cc1ccc(S(=O)(=O)OCC2Cc3cc(C)c4c(c3O2)CCC4)cc1 (centres undefined)
57 | 108 to 114 °C | CCc1nc2cc(N(C)C)c(Cl)cc2n1-c1ccc(CCNC(=O)NS(=O)(=O)c2ccc(C)cc2)cc1
58 | 373 °C | O=C1c2nccnc2C(=O)N1c1ccc2ccc(O)nc2n1
59 | 208 to 210 °C | Cc1ccccc1N1CCN(Cc2ccc(Nc3ccnc4cc(C(F)(F)F)ccc34)cc2)CC1
60 | 206 to 208 °C | COc1cc(NC(C)=O)c(Cl)cc1C(=O)[NH+]([O-])C1CCN(CC2CCCCC2)CC1 (centres undefined)
61 | 157 to 158 °C | Cc1c(Cc2ccc(C(C)C)cc2)c2c(c(C)c1NC(=O)CC(C)(C)C)C(c1ccc(C(C)C)cc1)CO2 (centres undefined)
62 | 75 to 80 °C | Cc1ccc(-c2ccc(O)cc2)c(-c2ccc(OCCN3CCOCC3)cc2)n1
63 | 53 to 55 °C | COC(=O)c1ccc(SC)c(OC2CCCC2)c1
64 | 110 to 112 °C | CCCC(=O)N(C)Cc1c(-c2ccc(C)cc2)nc2n1-c1ccccc1CC2
65 | 150 to 154 °C | CNC(=O)c1ccc(Cl)nc1
66 | 194 to 195 °C | O=C(O)Cn1cc(Cc2nc3c(F)c(F)cc(F)c3s2)c2ccc(Cl)cc21
67 | 143 to 144 °C | NC(=O)Nc1ccc(CCOCc2ccccc2-c2ccccc2)cc1
68 | 150 to 151 °C | CC(=O)c1ccc(S(=O)(=O)Nc2nnn[nH]2)cc1
69 | 67 to 70 °C | Cc1ccc(-c2cncnc2Cl)cc1
70 | > 300 °C | C=CCn1cc2c(C3C(=O)Nc4ccc(C#N)cc43)ncnc2n1 (centres undefined)
71 | 156 to 159 °C | COc1ccc(-c2nnn(Cc3ccc(Cl)cc3Cl)c2N)cc1
72 | 137 to 138 °C | CC(=O)Oc1cc(OCC(=O)c2ccc3c(c2)C(C)(C)CCC3(C)C)ccc1C(=O)OCc1ccccc1

Row | melting point | Structure (SMILES)
73 | 155 to 157 °C | O=C(O)COc1cc(NS(=O)(=O)c2cccs2)c2ccccc2c1O
74 | 248 to 252 °C | COc1ccc(-c2ccc3[nH]c(=O)ccc3c2)cn1
75 | 174 to 175 °C | CC(=O)c1ccc(-c2ccccc2NC(=N)N(C)C)cc1
76 | 157 to 158 °C | COc1cc(-c2ccccc2)n(-c2ccc(C)cc2)c1-c1ccccc1
77 | 152 to 154 °C | CC(C)CN1C(=O)CCC(c2ccccc2Cl)c2cc(Cl)ccc21 (centres undefined)
78 | 48 to 51 °C | O=P1(c2cccc(C(F)(F)F)c2)c2ccccc2CN1c1ccccc1 (centres undefined)
79 | 47 to 48.5 °C | CC(C)(C)OC(=O)[C@@H]1C[C@H](C(=O)OC(C)(C)C)N1
80 | 188 to 190 °C | Cn1cc(-c2ncc(-c3ccc4cc(O)ccc4c3)o2)c2ccccc21
81 | 145 to 146 °C | O=C(c1ccccc1)c1cc2ccncc2n1S(=O)(=O)c1ccccc1
82 | 159 to 161 °C | CCc1cc(CC)c2ccc(=O)[nH]c2n1
83 | 87 °C | COCC1OC(=O)NC1c1ccccc1OC(C)(O)C1CCCCC1 (centres undefined)
84 | 76 to 79 °C | N#CCc1ccccc1NC(=O)C(F)(F)C(F)(F)C(F)(F)F
85 | 86 to 88 °C | COc1ccc([C@]2(C)Cc3cc(OC)ccc3[C@@H]2CCC2OCCCO2)cc1 (racemic)
86 | 112 to 113 °C | CCn1ncc2c(ON=C(C)C)c(C(=O)c3ccc(Cl)cc3)cnc21
87 | 49 to 51 °C | Cc1ccc(OCCO)cn1
88 | 189 to 191 °C | COc1cc2oc(=O)c3c(c2cc1OC)CCN(Cc1ccccc1)C3
89 | 69 °C | COC=C(C(=O)OC)c1ccccc1Oc1ncnc(F)c1F
90 | 216 to 217 °C | CCCCS(=O)(=O)NC1Cc2ccc(C3=NNC(=O)C(c4ccccc4)C3)cc2C1 (centres undefined)
91 | 140 to 142 °C | C[C@@H]1Cc2cc3c(cc2C(c2ccc([N+](=O)[O-])cc2)=NN1C(=S)NN)OCO3
92 | 236 to 238 °C | OC(c1cc2ccccc2c2ccccc12)c1cc2ccccc2c2ccccc12
93 | 75 to 76 °C | CCN(CC)CCCNC(=O)Cn1ncc(-c2ccc(N)cc2)c1-c1ccccc1

Row | Structure (SMILES) | melting point
94 | CN1C[C@H](CCN2CCN(C(c3ccccc3)c3ccccc3)CC2)C[C@@H]2c3cccc4[nH]cc(c34)C[C@H]21 | 206 to 212 °C
95 | CN1CCN(C2CC3C4CCC5CC(O)C(N6CCC(=O)CC6)CC5(C)C4CCC3(C)C2O)CC1 (centres undefined) | 225 to 229 °C
96 | NC1CC2CCCC(C1)N2Cc1ccccc1 (centres undefined) | 134 °C
97 | CCCCc1ccc(NC2=NCCS2)cc1 | 73 to 75 °C
98 | CC(=O)Cn1c(=O)n(C2CCN(CCCC(c3ccc(F)cc3)c3ccc(F)cc3)CC2)c2ccc(Cl)cc21 | 175 °C
99 | CN1C[C@H](CCN2CCN(C(c3ccccc3)c3ccccc3)CC2)C=C2c3cccc4[nH]cc(c34)C[C@H]21 | 165 to 169 °C
